According to US20230203174A1, “COMPOSITION FOR PREVENTING OR ALLEVIATING CELLULAR SENESCENCE” (SEOUL NATIONAL UNIVERSITY R&DB FOUNDATION, priority 2021, published 2023):
Read-outs that look alike come from different tables or passages of the source.

Experiments:
MC3T3-E1 cells [1] = assay: SA-β-gal staining of senescent cells; format: cell-based, mouse
Experimental: Senescence Associated-β-Galactosidase (SA-β-gal) Staining
SA-β-gal staining was performed with reference to the paper (2009) published by the Debacq-Chainiaux group. Cells cultured on coverslips were fixed in 4% paraformaldehyde at room temperature for 6 min. After washing cells three times with PBS, the cells were reacted for 16-24 hours in a staining solution [40 mM Na2HPO4, pH 6.0, 150 mM NaCl, 2 mM MgCl2, 5 mM K3Fe(CN)6, 5 mM K4Fe(CN)6 and 1 mg/ml X-Gal]. After washing 3 times with PBS, it was permeabilized with PBS containing 0.2% Triton X-100 at room temperature for 15 minutes. For nuclear staining, a mounting solution containing 4′,6-diamidino-2-phenylindole (DAPI) was used (AR-6501-01; ImmunoBioScience Corp., Mukilteo, Wash., USA). Images were acquired using an Eclipse TS-100 inverted microscope (Nikon). Using the ImageJ program, nucleus (DAPI) and SA-b-gal positive cells were counted in each image and compared as an average of % SA-β-gal positive cells (SA-β-gal positive cells/nuclear number×100) using the ImageJ program using 10 images of different parts per group.

PADI2 [2] = assay: PADI2 expression (RT-qPCR, Western blot) in MC3T3-E1 cells; format: cell-based, mouse
Source text: (§1) RNA Preparation and Quantitative Real-Time PCR (RT-qPCR)

[3] = test system: NFκB RelA transcription factor; settings: MC3T3-E1 cells, 100 μM H2O2 for 24 h
Experimental: After collecting cells with PBS, a cell pellet was equally divided into two tubes for whole-cell lysate and cell fractionation. The whole-cell lysate prepared with 100 μL of lysis buffer composed of 25 mM Tris-HCl pH 7.4, 150 mM NaCl, 1% NP-40, 1 mM EDTA, 5% glycerol, protease inhibitor cocktail (Roche, #11-836-153-001), phosphatase inhibitor cocktail 2 and 3 (Sigma-Aldrich, P5726 and P004 SEQ ID NO: 4). The nuclear-cytoplasmic fraction was isolated using NEPER™ nuclear and cytoplasmic extraction reagents (78855; Life Technologies, Carlsbad, Calif., USA) according to a manufacturer's protocol. Protein concentration was determined using the Pierce™ BCA Protein Assay Kit (Thermo Fisher Scientific). The whole-cell lysate, a cytoplasmic extract and a nuclear extract were separated by SDS-PAGE, transferred to PVDF membrane, and then Western blot analysis was performed with designated primary and secondary antibodies. Tubulin and Lamin A/C were used as cytoplasmic and nuclear markers, respectively.
Cells cultured on coverslips were fixed in 4% paraformaldehyde, blocked with PBS containing 2% BSA, and then reacted in a refrigerator overnight in a primary antibody solution. […] A degree of fluorescence expression was observed using a confocal microscope (LSM 800, Carl Zeiss), and representative cells were selected and photographed.

Cdkn1a (p21) mRNA = assay: RT-qPCR of senescence marker Cdkn1a; format: cell-based, mouse
Source text: as §1

MC3T3-E1 cells [4] = assay: Osteoblast differentiation by ALP and Alizarin Red S staining; format: cell-based, mouse
Source text: In addition, it was shown that and a level of protein and an expression of cdkn1a (p21) mRNA which is a molecular marker of cellular senescence, were increased by H2O2 treatment (B and C).

[5] = test system: CCL2, CCL5, and CCL7 mRNA; assay: RT-qPCR of SASP factors CCL2, CCL5, CCL7; format: cell-based, mouse
Source text: as §1

p21 = settings: MC3T3-E1 cells, H2O2 treatment
Experimental: (§2) Protein was extracted using a PRO-PREP protein extraction solution (Cat #17081, iNtRON, Korea) according to a manufacturer's protocol. The same amount of protein was transferred to a polyvinylidene fluoride (PVDF) membrane after sodium dodecyl sulfate polyacrylamide gel electrophoresis (SDS-PAGE). After blocking with 5% non-fat milk, membranes were blotted in primary antibody solution at 4° C. in a refrigerator overnight. A membrane reacted with a primary antibody was washed 3 times every 5 minutes with PBS-0.05% Tween 20 solution, then reacted with a secondary antibody for 1-2 hours at room temperature, and then the membrane was washed 3 times with PBS-0.05% Tween 20 solution for 5 minutes. Thereafter, the images were acquired on an ImageQuant LAS4000 Mini (GE Healthcare) using chemiluminescence (Clarity™ Western ECL Substrate, #170-5060; Bio-Rad). α-Tubulin or β-actin was used as a protein loading control.

PADI2 [6] = settings: human-derived mesenchymal stromal cells (hMSC), 100 μM H2O2
Experimental: as §2
Total RNA was isolated using the RNeasy Mini Kit (Qiagen, Hilden, Germany). Total RNA (1 μg) was reverse transcribed into cDNA using PrimeScript RT Master Mix (Perfect Real Time) (RR036A; TaKaRa, Japan) and a real-time PCR was performed on an STEPONEPLUS™ Real-Time PCR System (APPLIED BIOSYSTEMS™) instr μMent using TB GREEN® PREMIX EX TAQ™ (RR420A; TaKaRa). […]

[7] = 1 μM Bay11-7082 co-treated with 100 μM H2O2
[8] = Padi2 knockdown plus NFκB inhibition

Compound	number of SA-β-gal positive cells (MC3T3-E1 cells [1]; MC3T3-E1 cells, 50 μM or 100 μM H2O2 for 3 days)	Padi2 mRNA level (PADI2 [2]; MC3T3-E1 cells, 100 μM H2O2 for 1, 4, and 7 days in differentiation medium, RT-qPCR)	expression of PADI2 (mRNA level and protein level) (PADI2 [2]; mouse-derived MC3T3-E1 cells, 100 μM H2O2)	NFκB RelA activation and transfer from cytoplasm to nucleus [3]	expression of cdkn1a (p21) mRNA (Cdkn1a (p21) mRNA; MC3T3-E1 cells, H2O2 treatment)	osteoblast differentiation function (ALP and Alizarin Red S staining) (MC3T3-E1 cells [4]; MC3T3-E1 cells, excessive ROS (H2O2))	CCL2, CCL5, and CCL7 in SASP (RNA-seq and RT-qPCR) ([5]; upon H2O2 treatment)	level of p21 protein (p21)	expression of PADI2 (mRNA level and protein level) (PADI2 [6])	number of senescent cells increased by H2O2 alone (MC3T3-E1 cells [1]; [7])	number of senescent cells increased by Padi2 knockdown (MC3T3-E1 cells [1]; [8])	expression of Cdkn1a (Cdkn1a (p21) mRNA; [7])	Cdkn1a expression increased by Padi2 knockdown (Cdkn1a (p21) mRNA; [8])	function degradation of osteoblast (ALP and ARS staining) (MC3T3-E1 cells [4]; caused by excessive ROS and Padi2 knockdown)	expressions of CCL2, CCL5, and CCL7 (mRNA levels) increased by H2O2 ([5]; combined with H2O2 treatment)
OO [H2O2, hydrogen peroxide]	increased in a H2O2 concentration-dependent manner	significantly reduced	significantly reduced	migration to the nucleus was observed	increased	significantly inhibited	significantly increased	increased	significantly reduced	–	–	–	–	–	–
Cc1ccc(S(=O)(=O)/C=C/C#N)cc1 [Bay11-7082]	–	–	–	–	–	–	–	–	–	reduced	decreased	reduced	decreased	restored	significantly reduced
